How the values were obtained:
Assay in all cases: relative viability (nuclei count vs DMSO), 5 days (fraction); higher = more cells survive
NCI-H1355 = test system: NCI-H1355
How it was run: (§1)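 Lung cancer cell lines were pin-tool dosed in 1536-well plates on the day after seeding, with either a lone drug or a fixed anchor-drug dose plus five library-drug doses (not always all listed) in √10 steps. Nuclei were counted on 4× images after 5 days. Relative viability is the ratio of treated-well to vehicle-well nuclei counts, with each value a median of duplicate plates.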

HCC-827 = test system: HCC-827
How it was run: as §1

HCC-366 = test system: HCC-366
How it was run: as §1

NCI-H2085 = test system: NCI-H2085
How it was run: as §1

NCI-H2009 = test system: NCI-H2009
How it was run: as §1

NCI-H460 = test system: NCI-H460
How it was run: as §1

ChaGo-K-1 = test system: ChaGo-K-1
How it was run: as §1

NCI-H1993 = test system: NCI-H1993
How it was run: as §1

H3255 = test system: H3255
How it was run: as §1

NCI-H2342 = test system: NCI-H2342
How it was run: as §1

EKVX = test system: EKVX
How it was run: as §1

CAL-12T = test system: CAL-12T
How it was run: as §1

NCI-H2228 = test system: NCI-H2228
How it was run: as §1

SK-MES-1 = test system: SK-MES-1
How it was run: as §1

NCI-H1975 = test system: NCI-H1975
How it was run: as §1

NCI-H441 = test system: NCI-H441
How it was run: as §1

NCI-H322M = test system: NCI-H322M
How it was run: as §1

EPLC-272H = test system: EPLC-272H
How it was run: as §1

ABC-1 = test system: ABC-1
How it was run: as §1

COR-L 105 = test system: COR-L 105
How it was run: as §1

NCI-H2087 = test system: NCI-H2087
How it was run: as §1

Structure (SMILES): Cc1cn(-c2cc(NC(=O)c3ccc(C)c(Nc4nccc(-c5cccnc5)n4)c3)cc(C(F)(F)F)c2)cn1 [Nilotinib] + Cc1cc(Nc2cc(N3CCN(C)CC3)nc(Sc3ccc(NC(=O)C4CC4)cc3)n2)n[nH]1 [Tozasertib] (partner 0.1 µM)
- relative viability (NCI-H1355; first compound 0.001 µM): 0.512
- relative viability (NCI-H1355; first compound 0.003162 µM): 0.454
- relative viability (NCI-H1355; first compound 0.01 µM): 0.442
- relative viability (NCI-H1355; first compound 0.03162 µM): 0.343
- relative viability (NCI-H1355; first compound 0.1 µM): 0.316
- relative viability (HCC-827; first compound 0.003162 µM): 0.521
- relative viability (HCC-827; first compound 0.01 µM): 0.529
- relative viability (HCC-827; first compound 0.03162 µM): 0.39
- relative viability (HCC-827; first compound 0.1 µM): 0.379
- relative viability (HCC-366; first compound 0.001 µM): 0.0811
- relative viability (HCC-366; first compound 0.003162 µM): 0.057
- relative viability (HCC-366; first compound 0.01 µM): 0.0646
- relative viability (HCC-366; first compound 0.03162 µM): 0.072
- relative viability (HCC-366; first compound 0.1 µM): 0.05
- relative viability (NCI-H2085; first compound 0.001 µM): 0.616
- relative viability (NCI-H2085; first compound 0.003162 µM): 0.593
- relative viability (NCI-H2085; first compound 0.01 µM): 0.585
- relative viability (NCI-H2085; first compound 0.03162 µM): 0.47
- relative viability (NCI-H2085; first compound 0.1 µM): 0.427
- relative viability (NCI-H2009; first compound 0.001 µM): 0.622
- relative viability (NCI-H2009; first compound 0.003162 µM): 0.853
- relative viability (NCI-H2009; first compound 0.01 µM): 0.577
- relative viability (NCI-H2009; first compound 0.03162 µM): 0.372
- relative viability (NCI-H2009; first compound 0.1 µM): 0.383
- relative viability (NCI-H460; first compound 0.001 µM): 0.152
- relative viability (NCI-H460; first compound 0.03162 µM): 0.1
- relative viability (NCI-H460; first compound 0.1 µM): 0.0459
- relative viability (ChaGo-K-1; first compound 0.001 µM): 0.205
- relative viability (ChaGo-K-1; first compound 0.003162 µM): 0.229
- relative viability (ChaGo-K-1; first compound 0.01 µM): 0.202
- relative viability (ChaGo-K-1; first compound 0.03162 µM): 0.162
- relative viability (ChaGo-K-1; first compound 0.1 µM): 0.138
- relative viability (NCI-H1993; first compound 0.001 µM): 0.611
- relative viability (NCI-H1993; first compound 0.003162 µM): 0.668
- relative viability (NCI-H1993; first compound 0.01 µM): 0.622
- relative viability (NCI-H1993; first compound 0.03162 µM): 0.586
- relative viability (NCI-H1993; first compound 0.1 µM): 0.631
- relative viability (H3255; first compound 0.001 µM): 0.532
- relative viability (H3255; first compound 0.003162 µM): 0.516
- relative viability (H3255; first compound 0.03162 µM): 0.48
- relative viability (H3255; first compound 0.1 µM): 0.717
- relative viability (NCI-H2342; first compound 0.001 µM): 0.501
- relative viability (NCI-H2342; first compound 0.003162 µM): 0.561
- relative viability (NCI-H2342; first compound 0.01 µM): 0.45
- relative viability (NCI-H2342; first compound 0.03162 µM): 0.494
- relative viability (NCI-H2342; first compound 0.1 µM): 0.603
- relative viability (EKVX; first compound 0.001 µM): 0.368
- relative viability (EKVX; first compound 0.003162 µM): 0.341
- relative viability (EKVX; first compound 0.01 µM): 0.35
- relative viability (EKVX; first compound 0.03162 µM): 0.252
- relative viability (EKVX; first compound 0.1 µM): 0.261
- relative viability (CAL-12T; first compound 0.001 µM): 0.197
- relative viability (CAL-12T; first compound 0.003162 µM): 0.217
- relative viability (CAL-12T; first compound 0.01 µM): 0.219
- relative viability (CAL-12T; first compound 0.03162 µM): 0.172
- relative viability (CAL-12T; first compound 0.1 µM): 0.211
- relative viability (NCI-H2228; first compound 0.003162 µM): 0.223
- relative viability (NCI-H2228; first compound 0.01 µM): 0.212
- relative viability (NCI-H2228; first compound 0.03162 µM): 0.16
- relative viability (NCI-H2228; first compound 0.1 µM): 0.141
- relative viability (SK-MES-1; first compound 0.001 µM): 0.804
- relative viability (SK-MES-1; first compound 0.003162 µM): 0.939
- relative viability (SK-MES-1; first compound 0.01 µM): 1.05
- relative viability (SK-MES-1; first compound 0.03162 µM): 0.572
- relative viability (SK-MES-1; first compound 0.1 µM): 0.524
- relative viability (NCI-H1975; first compound 0.001 µM): 0.212
- relative viability (NCI-H1975; first compound 0.003162 µM): 0.224
- relative viability (NCI-H1975; first compound 0.01 µM): 0.205
- relative viability (NCI-H1975; first compound 0.03162 µM): 0.154
- relative viability (NCI-H1975; first compound 0.1 µM): 0.218
- relative viability (NCI-H441; first compound 0.001 µM): 0.448
- relative viability (NCI-H441; first compound 0.003162 µM): 0.482
- relative viability (NCI-H441; first compound 0.01 µM): 0.44
- relative viability (NCI-H441; first compound 0.03162 µM): 0.429
- relative viability (NCI-H441; first compound 0.1 µM): 0.37
- relative viability (NCI-H322M; first compound 0.001 µM): 0.471
- relative viability (NCI-H322M; first compound 0.003162 µM): 0.427
- relative viability (NCI-H322M; first compound 0.01 µM): 0.492
- relative viability (NCI-H322M; first compound 0.03162 µM): 0.456
- relative viability (NCI-H322M; first compound 0.1 µM): 0.548
- relative viability (EPLC-272H; first compound 0.001 µM): 0.212
- relative viability (EPLC-272H; first compound 0.003162 µM): 0.18
- relative viability (EPLC-272H; first compound 0.01 µM): 0.251
- relative viability (EPLC-272H; first compound 0.03162 µM): 0.182
- relative viability (EPLC-272H; first compound 0.1 µM): 0.105
- relative viability (ABC-1; first compound 0.001 µM): 0.175
- relative viability (ABC-1; first compound 0.003162 µM): 0.176
- relative viability (ABC-1; first compound 0.01 µM): 0.168
- relative viability (ABC-1; first compound 0.03162 µM): 0.232
- relative viability (ABC-1; first compound 0.1 µM): 0.237
- relative viability (COR-L 105; first compound 0.001 µM): 0.361
- relative viability (COR-L 105; first compound 0.003162 µM): 0.329
- relative viability (COR-L 105; first compound 0.01 µM): 0.497
- relative viability (COR-L 105; first compound 0.03162 µM): 0.329
- relative viability (COR-L 105; first compound 0.1 µM): 0.317
- relative viability (NCI-H2087; first compound 0.001 µM): 0.195
- relative viability (NCI-H2087; first compound 0.003162 µM): 0.24
- relative viability (NCI-H2087; first compound 0.01 µM): 0.202
- relative viability (NCI-H2087; first compound 0.03162 µM): 0.19
- relative viability (NCI-H2087; first compound 0.1 µM): 0.197
